# Experimental data taken from ChEMBL document CHEMBL5500406, “Discovery of Novel Proteolysis-Targeting Chimera Molecules as Degraders of Programmed Cell Death-Ligand 1 for Breast Cancer Therapy” (J Med Chem, 2024).
# The source made the active and inactive calls. The calls are words filed in the database; no cut-off is given here.
# Key:
# 4T1 [1] = assay: Antitumor activity against mouse 4T1 cells allografted in BALB/c mouse assessed as reduction in tumor volume at 10 mg/kg, ip qd for 15 days; assay type: functional, organism-based; details: time 15.0 day
# 4T1 [2] = assay: Antitumor activity against mouse 4T1 cells allografted in BALB/c mouse assessed as reduction in tumor weight at 10 mg/kg, ip qd for 15 days; assay type: functional, organism-based; details: time 15.0 day
# [3] = target: Protein cereblon/Programmed cell death 1 ligand 1 (Mus musculus) (UniProt Q9EP73+Q8C7D2); assay: PROTAC activity at CRBN/PD-L1 in mouse 4T1 cells assessed as protein degradation at 1.25 to 20 uM incubated for 24 hrs by Western blot analysis; assay type: cell-based; details: dose 1.25-20 µM
# Chain of Protein cereblon/Programmed cell death 1 ligand 1 (Mus musculus) (Q8C7D2 whole entry partner): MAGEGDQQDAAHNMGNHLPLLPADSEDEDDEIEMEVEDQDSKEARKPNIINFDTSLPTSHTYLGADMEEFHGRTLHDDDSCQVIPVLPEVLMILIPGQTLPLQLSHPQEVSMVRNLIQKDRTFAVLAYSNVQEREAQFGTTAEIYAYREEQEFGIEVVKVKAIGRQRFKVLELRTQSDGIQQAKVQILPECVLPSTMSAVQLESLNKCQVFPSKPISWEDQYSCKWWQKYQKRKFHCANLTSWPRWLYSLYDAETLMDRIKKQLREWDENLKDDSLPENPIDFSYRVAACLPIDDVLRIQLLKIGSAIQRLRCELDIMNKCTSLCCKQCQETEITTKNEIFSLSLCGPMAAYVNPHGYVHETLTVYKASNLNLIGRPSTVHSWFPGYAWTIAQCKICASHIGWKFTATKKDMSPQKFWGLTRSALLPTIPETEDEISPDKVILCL
# Chain of Protein cereblon/Programmed cell death 1 ligand 1 (Mus musculus) (Q9EP73 19-290 limits assumed): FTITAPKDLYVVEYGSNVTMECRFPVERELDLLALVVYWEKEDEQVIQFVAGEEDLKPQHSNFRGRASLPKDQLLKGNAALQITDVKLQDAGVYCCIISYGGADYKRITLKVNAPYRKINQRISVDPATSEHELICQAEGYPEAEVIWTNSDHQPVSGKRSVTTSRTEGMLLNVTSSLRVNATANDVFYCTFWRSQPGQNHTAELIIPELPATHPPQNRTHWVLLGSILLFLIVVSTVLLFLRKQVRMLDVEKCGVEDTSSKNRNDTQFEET
SMILES,Activity (4T1 [1]),Activity (4T1 [2]),Activity [3]
CC(=O)O[C@H]1C(=O)[C@@]2(C)[C@H]([C@H](OC(=O)c3ccccc3)[C@]3(O)C[C@H](OC(=O)[C@H](O)[C@@H](NC(=O)c4ccccc4)c4ccccc4)C(C)=C1C3(C)C)[C@]1(OC(C)=O)CO[C@@H]1C[C@@H]2O,Active,Active,
COc1nc(OCc2cccc(-c3ccccc3)c2C)ccc1CNCCNC(=O)CCCCCCCNC(=O)COc1ccc(C2CCC(=O)NC2=O)cc1 (stereo not drawn),,,Active
